Data as given in PMC4594923, “Food Polyphenols Fail to Cause a Biologically Relevant Reduction of COX-2 Activity” (PLoS ONE, 2015).
Marks after values point to notes of the source that are not given here.

Legend:
[1] = system: arachidonic acid (AA) cascade; assay: plasma oxylipin/PG levels in LPS induced sepsis in mice; format: in vivo, C57BL/6N mice;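 further: male C57BL/6N mice given LPS, plasma oxylipins quantified by LC-MS after solid-phase extraction, pretreatment or vehicle given intraperitoneally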
[2] = system: arachidonic acid (AA) cascade; assay: kidney tissue oxylipin/PG levels in LPS induced sepsis in mice; settings: kidney tissue 24 h after LPS treatment, LPS +, mean;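 further: male C57BL/6N mice challenged with LPS, kidney taken 24 h later, oxylipins quantified by LC-MS after solid-phase extraction of tissue homogenate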
[3] = mice, compound i. p. 100 mg/kg bw 2 h before LPS, 24 h after LPS, vs. LPS group
[4] = plasma 24 h after LPS treatment, LPS +, mean

SMILES: O=c1cc(-c2ccc(O)cc2)oc2cc(O)cc(O)c12 [Apigenin, apigenin]
- plasma epoxy- and dihydroxy-fatty acid (FA) metabolites of the CYP pathway [1, 3]: reduced
- sum of DiHETrEs in plasma [1, 3]: decrease
- sum of linoleic acid (LA) derived epoxy-metabolites in plasma [1, 3]: decrease
- 1a,1b-dihomo-PGF2α concentration in plasma [1, 4]: 0.27 nM
- 4,5-DiHDPE concentration in plasma [1, 4]: 7.8 nM
- 4-HDHA concentration in plasma [1, 4]: 1.3 nM
- 5(6)-EpETrE concentration in plasma [1, 4]: 6.8 nM
- 5,6-DiHETrE concentration in plasma [1, 4]: 0.62 nM
- 5-HEPE concentration in plasma [1, 4]: 0.27 nM
- 5-HETE concentration in plasma [1, 4]: 2.4 nM
- 5-iPF2α concentration in plasma [1, 4]: < 0.50 nM
- 5-oxo-ETE concentration in plasma [1, 4]: < 1.0 nM
- 6-keto-PGF1α concentration in plasma [1, 4]: 2.1 nM
- 7,8-DiHDPE concentration in plasma [1, 4]: 0.64 nM
- 7-HDHA concentration in plasma [1, 4]: 0.47 nM
- 8(9)-EpETrE concentration in plasma [1, 4]: 1.5 nM
- 8,9-DiHETrE concentration in plasma [1, 4]: 1.4 nM
- 8-HDHA concentration in plasma [1, 4]: 3.0 nM
- 8-HETE concentration in plasma [1, 4]: 3.1 nM
- 8-iPF2a concentration in plasma [1, 4]: 0.19 nM
- 9(10)-EpODE concentration in plasma [1, 4]: 2.2^* nM
- 9(10)-EpOME concentration in plasma [1, 4]: 24^* nM
- 9(10)-Epoxystearic acid concentration in plasma [1, 4]: 18 nM
- 9,10,13-TriHOME concentration in plasma [1, 4]: 3.3 nM
- 9,10-DiHODE concentration in plasma [1, 4]: 4.0 nM
- 9,10-DiHOME concentration in plasma [1, 4]: 34 nM
- 9,10-Dihydroxystearic acid concentration in plasma [1, 4]: 47^‡ nM
- 9,12,13-TriHOME concentration in plasma [1, 4]: 38 nM
- 9-HODE concentration in plasma [1, 4]: 83 nM
- 9-HOTrE concentration in plasma [1, 4]: 6.1 nM
- 9-oxo-ODE concentration in plasma [1, 4]: 16 nM
- 10(11)-EpDPE concentration in plasma [1, 4]: 1.7 nM
- 10,11-DiHDPE concentration in plasma [1, 4]: 0.58^* nM
- 10-HDHA concentration in plasma [1, 4]: 3.0 nM
- 11(12)-EpETrE concentration in plasma [1, 4]: 2.0 nM
- 11,12-DiHETE concentration in plasma [1, 4]: < 0.13 nM
- 11,12-DiHETrE concentration in plasma [1, 4]: 1.1^* nM
- 11-HDHA concentration in plasma [1, 4]: 0.67 nM
- 11-HETE concentration in plasma [1, 4]: 1.8 nM
- 12(13)-EpODE concentration in plasma [1, 4]: 1.8 nM
- 12(13)-EpOME concentration in plasma [1, 4]: 29^* nM
- 12,13-DiHODE concentration in plasma [1, 4]: 4.5 nM
- 12,13-DiHOME concentration in plasma [1, 4]: 114 nM
- 12-HEPE concentration in plasma [1, 4]: 25 nM
- 12-HETE concentration in plasma [1, 4]: 260 nM
- 13(14)-EpDPE concentration in plasma [1, 4]: 1.2 nM
- 13,14-DiHDPE concentration in plasma [1, 4]: 0.58^* nM
- 13,14-dihydro-15-keto-PGE1 concentration in plasma [1, 4]: 0.14 nM
- 13,14dihydro-15-keto-PGF2α concentration in plasma [1, 4]: 0.41 nM
- 13-HDHA concentration in plasma [1, 4]: 0.98 nM
- 13-HODE concentration in plasma [1, 4]: 110^* nM
- 13-HOTrE concentration in plasma [1, 4]: 5.7 nM
- 13-oxo-ODE concentration in plasma [1, 4]: 2.5 nM
- 14(15)-EpETE concentration in plasma [1, 4]: 0.14^† nM
- 14(15)-EpETrE concentration in plasma [1, 4]: 1.5^* nM
- 14,15-DiHETE concentration in plasma [1, 4]: 0.19^† nM
- 14,15-DiHETrE concentration in plasma [1, 4]: 2.2 nM
- 14-HDHA concentration in plasma [1, 4]: 71 nM
- 15(16)-EpODE concentration in plasma [1, 4]: 1.2 nM
- 15(S)-HETrE concentration in plasma [1, 4]: 0.94 nM
- 15,16-DiHODE concentration in plasma [1, 4]: 24 nM
- 15-HETE concentration in plasma [1, 4]: 2.5 nM
- 15-oxo-ETE concentration in plasma [1, 4]: 0.29 nM
- 16(17)-EpDPE concentration in plasma [1, 4]: 1.2 nM
- 16,17-DiHDPE concentration in plasma [1, 4]: 1.2^* nM
- 16-HDHA concentration in plasma [1, 4]: 1.0 nM
- 17(18)-EpETE concentration in plasma [1, 4]: 0.68^* nM
- 17,18-DiHETE concentration in plasma [1, 4]: 1.2^* nM
- 17-HDHA concentration in plasma [1, 4]: 5.2 nM
- 18-HEPE concentration in plasma [1, 4]: 0.26 nM
- 19(20)-EpDPE concentration in plasma [1, 4]: 9.4 nM
- 19,20-DiHDPE concentration in plasma [1, 4]: 11 nM
- 20-HDHA concentration in plasma [1, 4]: 2.2 nM
- 20-HEPE concentration in plasma [1, 4]: 1.7^* nM
- 20-HETE concentration in plasma [1, 4]: 1.6 nM
- EKODE concentration in plasma [1, 4]: 7.0 nM
- PGD2 concentration in plasma [1, 4]: < 0.50 nM
- PGE2 concentration in plasma [1, 4]: 1.3 nM
- PGF1α concentration in plasma [1, 4]: 0.10 nM
- PGF2α concentration in plasma [1, 4]: 0.42 nM
- TXB2 concentration in plasma [1, 4]: 1.1 nM
- 1a,1b-dihomo-PGF2α [2]: 1.3 nM
- 4,5-DiHDPE [2]: 15 nM
- 4-HDHA [2]: 19 nM
- 5(6)-EpETrE [2]: 130^* nM
- 5,6-DiHETrE [2]: 1.6^* nM
- 5-HEPE [2]: 1.0 nM
- 5-HETE [2]: 12 nM
- 5-oxo-ETE [2]: 28 nM
- 6-keto-PGF1α [2]: 55 nM
- 7,8-DiHDPE [2]: 1.6 nM
- 7-HDHA [2]: 3.5 nM
- 8(9)-EpETrE [2]: 32^† nM
- 8,9-DiHETrE [2]: 1.6 nM
- 8-HDHA [2]: 20^† nM
- 8-HETE [2]: 3.4 nM
- 8-iPF2a [2]: 1.8 nM
- 9(10)-EpODE [2]: 13 nM
- 9(10)-EpOME [2]: 150 nM
- 9(10)-Epoxystearic acid [2]: 77^* nM
- 9,10,13-TriHOME [2]: 4.8 nM
- 9,10-DiHODE [2]: 1.1 nM
- 9,10-DiHOME [2]: 15^† nM
- 9,10-Dihydroxystearic acid [2]: 57 nM
- 9,12,13-TriHOME [2]: 27 nM
- 9-HETE [2]: 3.5 nM
- 9-HODE [2]: 150 nM
- 9-HOTrE [2]: 3.2 nM
- 9-oxo-ODE [2]: 46 nM
- 10(11)-EpDPE [2]: 82^‡ nM
- 10,11-DiHDPE [2]: 1.9 nM
- 10-HDHA [2]: 3.6 nM
- 11(12)-EpETE [2]: 4.4 nM
- 11(12)-EpETrE [2]: 80^† nM
- 11,12-DiHETrE [2]: 2.1 nM
- 11-HDHA [2]: 5.7 nM
- 11-HETE [2]: 16 nM
- 12(13)-EpODE [2]: 6.0 nM
- 12(13)-EpOME [2]: 110 nM
- 12,13-DiHOME [2]: 32^* nM
- 12-HEPE [2]: 1.1 nM
- 12-HETE [2]: 10 nM
- 13(14)-EpDPE [2]: 65^† nM
- 13,14-DiHDPE [2]: 3.0 nM
- 13,14-dihydro-15-keto-PGF2α [2]: 2.7 nM
- 13-HDHA [2]: 6.9 nM
- 13-HODE [2]: 120 nM
- 13-HOTrE [2]: 3.3 nM
- 13-oxo-ODE [2]: 8.5 nM
- 14(15)-EpETE [2]: 5.4^‡ nM
- 14(15)-EpETrE [2]: 60^† nM
- 14,15-DiHETE [2]: 0.7 nM
- 14,15-DiHETrE [2]: 5.9 nM
- 14-HDHA [2]: 8.6 nM
- 15(16)-EpODE [2]: 65 nM
- 15(S)-HETrE [2]: 4.6 nM
- 15,16-DiHODE [2]: 13 nM
- 15-HETE [2]: 22 nM
- 15-oxo-ETE [2]: 8.2 nM
- 16(17)-EpDPE [2]: 61^‡ nM
- 16,17-DiHDPE [2]: 8.2 nM
- 16-HDHA [2]: 6.3 nM
- 17(18)-EpETE [2]: 6.2^‡ nM
- 17,18-DiHETE [2]: 2.7 nM
- 17-HDHA [2]: 17 nM
- 18-HEPE [2]: 1.5 nM
- 19(20)-EpDPE [2]: 92^‡ nM
- 19,20-DiHDPE [2]: 59 nM
- 20-HDHA [2]: 18 nM
- 20-HEPE [2]: 5.2 nM
- EKODE [2]: 40 nM
- PGD2 [2]: 13 nM
- PGE1 [2]: 4.7 nM
- PGE2 [2]: 110 nM
- PGF1α [2]: 2.8 nM
- PGF2α [2]: 33 nM
- TXB2 [2]: 2.0 nM
- 5,6-DiHETE ([2]; < = below LOQ): < 0.25 nM
- 5-iPF2α ([2]; < = below LOQ): < 1.0 nM
- 8(9)-EpETE ([2]; < = below LOQ): 2.9^† nM
- 12,13-DiHODE ([2]; < = below LOQ): < 2.0 nM
- 13,14-dihydro-15-keto-PGE1 ([2]; < = below LOQ): 0.41 nM
- 20-HETE ([2]; < = below LOQ): < 2.7 nM
- PGD1 ([2]; < = below LOQ): < 0.50 nM
- PGF2α ([2]; second listing of PGF2α (r9)): 33 nM
